Several values for one entry are separate records, joined by “and”; a condition that tells them apart may be missing. Identical values can stand only once. Entries after “also recorded” stand apart in the source; their conditions may differ.
Assays:
[1] = test system: whole-cell swelling-activated currents in adult rat astrocytes; test: Whole-cell (Nystatin perforated patch) currents in adult rat astrocytes, isotonic and hypotonic swelling; type: cell-based; conditions: for estimated reduction in swelling-activated current: relative to mean before and after controls
Experimental: It is considered that part of the swelling activated currents are attributable to SACs. To illustrate this embodiment, adult rat astrocytes were cultured as described above. Whole cell current was measured by the Nystatin perforated patch. Bath saline was the same as in Example 2. Pipette saline consisted of: KCl 80 mM, K2SO4 30 mM, NaCl 10 mM, MgSO4 3 mM, CaCl20.13 mM, EGTA 0.23 mM and Hepes 10 mM, pH 7.3. Nystatin was dissolved in pipette saline to a final concentration of […]. After patch formation, access resistance was allowed to drop to ˜15 MW (uncompensated), after which the series resistance compensation was set at ˜65%, and prediction was set to ˜75%. Whole cell capacitance measurements ranged from ˜25–50 pF. Whole cell currents were monitored by either a voltage step protocol shown in FIG. 7, or by 600 ms voltage ramps. During hypotonic swelling the cell was perfused initially with isotonic saline (bath saline with 160 mM mannitol replacing 80 mM NaCl) before switching to hypotonic saline (isotonic saline minus 140 mM mannitol). The BPS-8 perfusion system was used to rapidly (<200 ms) change the bathing solution. Peak currents were measured at 3–5 ms into voltage steps.

[2] = test system: stretch-activated channels (SACs); test: Outside-out patch clamp of stretch-activated channels in adult rat astrocytes; type: cell-based
Experimental: This embodiment describes the effect of the peptide GsMTx-4 variant (SEQ ID NO:1) on SACs. To illustrate this, adult rat astrocytes which are known to have SACs, were used. Adult rat astrocytes were cultured according to standard methods. Briefly, activated adult astrocytes isolated from gelatin-sponge implants from adult Sprague-Dawley rat brains obtained according to the method of Langan et al. (1995, Glia, 14:174–184) were used at passage numbers 2–4. Astrocytes were maintained in DMEM, 10% fetal bovine serum and 1% Penicillin/Streptomycin and were used in experiments between 2 and 5 days after passage. Cells between passage 4 and 35 expressed SACs with the same properties Both stellate process bearing cells and flat polygonal (fibroblast-like) cells were used.
The cultured astrocytes were used for single channel and whole cell recorndings. For single channel patch clamp, patch voltage was controlled by an Axopatch 200B (Axon Instruments, Calif.) and currents were recorded directly onto computer disk via a Labmaster DMA Ver. B (Scientific Instruments, Calif.) board controlled by pClamp6-Clampex acquisition software (Axon Instruments, California). Currents were sampled at 10 KHz and low-pass filtered at 2 KHz through the 4 pole Bessel filter on the Axopatch 200B. Experimental voltage protocols were controlled by pClamp6-Clampex. All potentials are defined with respect to the extracellular surface.
Electrodes were pulled on a Model PC-84 pipette puller (Brown-Flaming Instruments, Calif.), painted with Sylgard 184 (Dow Corning Corp. Midland Mich.) and fire polished. Electrodes were filled with KCl saline (KCl 140 mM, EGTA 5 mM, MgSO4 2 mM, Hepes 10 mM, pH 7.3) and had resistances ranging from 3–8 MWBath saline consisted of NaCl 140 mM, KCl 5 mM, MgSO4 1 mM, CaCl2 1 mM, glucose 6 mM and Hepes 10 mM, pH 7.3.
Pressure and suction were applied to the pipette by a pressure clamp. Pressure values represent pressure in the pipette, i.e., the intracellular side of the membrane in outside-out patches. Suction applied to a cell-attached patch has the same sign as pressure applied to an outside-out patch. The rise time of pressure changes at the tip were determined by monitoring the rate of current change when pressure steps were applied to an electrode containing 150 mM KCl solution and placed in a water bath. The t10-90 was ˜5 ms as determined by exponential fits to the current decay. Perfusion of toxin samples was performed by a pressurized bath perfusion system BPS-8 (ALA scientific instruments, NY) with 8 separate channels.
Off-line data analysis was performed with pClamp6 analysis software and Origin 5.0. Maximal unitary channel currents were determined via Guassian fits to the peaks of all points amplitude histograms generated from records containing 1–3 channels. […] Some of these records were analyzed by determining all of the step-like changes in current during the pressure application and selecting the average maximal current level as the unitary current. The data analyzed by this method was in good agreement with the unitary current levels determined by analysis of all points amplitude histograms from single channel patches.
The outside out patches from adult astrocytes as described above were used for testing the HPLC fractions obtained in Example 1. The HPLC fractions were lyophilized, redissolved at a 1:1000 dilution and perfused onto outside out patches. […] The fraction containing the single peak in FIG. 1D was then tested for activity against SACs. […] The patch was held at −50 mV, and the pressure pulse is shown above the records.
The entire experiment is comprised of 60 pressure steps: steps 1–20 occur before GsMTx-4 application; steps 21–38 while GsMTx-4 is being perfused; steps 39–60 occur during washout. Each 500 ms pressure step was separated by 1.5 seconds at 0 pressure.
The association rate of the toxin was determined by applying GsMTx-4 to an outside-out patch while the channels were activated by stretch (FIG. 5). […]

perfused rabbit hearts = test: Stretch-induced atrial fibrillation in perfused rabbit hearts
Source text: To illustrate this embodiment, fibrillation was initiated in perfused rabbit hearts with a burst of high-frequency stimulation FIG. 10A. Stretching the atrium chamber increased the incidence and duration of fibrillation (FIG. 10A–C). At pressures above 12 cm H2O, the fibrillation became sustained and the probability of sustained fibrillation (for, longer than 60 s) approached unity. The probability of inducing fibrillation was increased by stimulating the heart with a short burst of high-frequency pacing before each measurement (arrow in FIG. 10b). Perfusion with 170 nM GsMtx-4 suppressed both the incidence (FIG. 10c) and duration (FIG. 10d) of fibrillation in all hearts (n=10).

Sequence: GCLEFWWKCNPNDDKCCRPKLKCSKLFKLCNFSFGK [GsMTx-4]
- change in reversal potential of swelling-activated current ([1]; 5 μM GsMTx-4): +2 mV
- effect on whole-cell currents in isotonic saline ([1]; 5 μM GsMTx-4, 30 to 120 s after perfusion): no significant difference
- reduction of peak swelling-activated current response ([1]; 5 μM, 30 seconds after hypotonic exposure): about 75%
- estimated reduction in swelling-activated current ([1]; 5 μM, at +100 mV): ~38%
- estimated reduction in swelling-activated current ([1]; 5 μM, at −100 mV): ~48%
- time constant of current decay during GsMTx-4 application (association) ([2]; 5 μM toxin, outside-out patches held at −50 mV, single exponential fit): 594 ± 10 ms
- average SAC current when GsMTx-4 was applied ([2]; 7 patches, −50 mV, 2.04±0.14 pA prior to application): 0.17±0.02 pA
- block of SACs ([2]; HPLC fractions at 1:1000 dilution relative to whole venom, outside-out patches): the block was complete
- association constant ka ([2]; assuming 1:1 binding, from time constant at 5 μM): 340000 M⁻¹ s⁻¹ and 330000 M⁻¹ s⁻¹
- ratio of blocked to unblocked current I/I0 ([2]; data of FIG. 6): 0.083
- dissociation constant kd ([2]; from recovery kinetics on washout): 0.21 s⁻¹
- average SAC current after GsMTx-4 washout ([2]; last 8 pressure steps, 10 seconds after washout): 2.28±0.17 pA
- calculated equilibrium constant KD=kd/ka ([2]; ratio of rate constants): 631 ± 240 nM
- Kd ([2]; single binding site model, read-out: binding constant Kd from I/I0): 415 nM
- duration of fibrillation (perfused rabbit hearts; 170 nM perfusion): decreased the average time to spontaneous recovery from AF; also recorded: suppressed
- incidence of fibrillation (perfused rabbit hearts; 170 nM perfusion, n=10 hearts): suppressed
- stretch-induced shortening of the refractory period (perfused rabbit hearts; 170 nM, n=10): did not block
- sustained fibrillation (perfused rabbit hearts; 170 nM, pressures below 17.5 cm H2O): completely inhibited
